One data set deals with HK-1 cells. Briefly: Tac-induced apoptosis analysis with PI and Annexin-V. The following applies: Tac combined with SD911 (10 μM), compared to Tac alone. The format is cell-based, human. The method, then:
In HK-1 cells, the effect of SD911 on ROS production inhibitory ability and apoptosis reduction was identified. Based on the cell viability test results of Example 2 (FIG. 2), inhibitory effects of SD911 on ROS production were investigated at 1, 5, and 10 μM of SD911.

The target in data set [1] is T1, S1P (Sphingosine 1-phosphate) lyase (Mus musculus, UniProt Q8R0X7).
T1 construct: After homogenizing the liver tissue of an experimental animal in a lysis buffer; from tissue; host or cells: liver tissue homogenate of an experimental animal
T1 sequence (Q8R0X7 1-568): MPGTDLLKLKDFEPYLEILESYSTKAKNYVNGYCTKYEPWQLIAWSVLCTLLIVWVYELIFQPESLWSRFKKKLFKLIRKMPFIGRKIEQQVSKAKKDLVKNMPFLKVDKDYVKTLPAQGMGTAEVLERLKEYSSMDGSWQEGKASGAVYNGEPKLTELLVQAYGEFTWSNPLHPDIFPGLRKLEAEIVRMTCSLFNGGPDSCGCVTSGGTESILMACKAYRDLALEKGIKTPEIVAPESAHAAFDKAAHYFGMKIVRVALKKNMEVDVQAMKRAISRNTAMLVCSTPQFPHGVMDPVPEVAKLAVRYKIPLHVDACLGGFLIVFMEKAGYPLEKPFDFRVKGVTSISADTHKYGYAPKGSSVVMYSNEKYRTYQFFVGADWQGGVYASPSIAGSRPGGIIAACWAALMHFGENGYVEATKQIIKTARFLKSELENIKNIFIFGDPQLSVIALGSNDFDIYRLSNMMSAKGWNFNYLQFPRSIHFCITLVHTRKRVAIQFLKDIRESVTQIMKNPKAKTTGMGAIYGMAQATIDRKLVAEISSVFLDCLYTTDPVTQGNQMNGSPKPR
Briefly: S1P lyase (SPL) activity in liver lysate, HPLC. The following applies: 5 uM inhibitor, 37° C. for 1 hour. The format is biochemical. On the procedure:
After homogenizing the liver tissue of an experimental animal in a lysis buffer, protein quantification was performed to secure the concentration, and a mixed solution was prepared under the conditions shown in Table 1 below and reacted at 37° C. for 1 hour.

The subject of data set [2] is HK-2 cells. The data set is described as follows: Reactive oxygen species (ROS) measurement by DCF-DA flow cytometry in HK-2 cells. The format is cell-based, human. On the procedure:
After 80% seeding of HK-2 cells, 24 hours later, tacrolimus was treated at a concentration of 60 to 70 μg/ml and SD911 was treated at a concentration of 1 to 20 μM and reacted for 3 to 12 hours, and then 10 μM of DCF-DA (Molecular probes, Carlebad, Calif., USA) was reacted at 37° C. for 1 hour. Then, cells were harvested and analyzed with 0.05% Trypsin and 0.53 mM EDTA. For analysis, aggregated or broken cells were removed using FSC (forward side scatter) and SSC (side scatter) scatter plots (dot plot) using a FACS Calibur (BD bioscience, San Jose, Calif., USA), and the fluorescence fraction was analyzed in the FL-1H channel (Excitation 488 nm, Emission 513 to 535 nm). Based on the cell viability identification results of Example 1, the ROS production inhibitory effect on 1, 5, and 10 μM of SD911 was investigated. […] In […] cells, the effect of SD911 on ROS production inhibitory ability and apoptosis reduction was identified. Based on the cell viability test results of Example 2 (FIG. 2), inhibitory effects of SD911 on ROS production were investigated at 1, 5, and 10 μM of SD911.
(A flow cytometer gives signals particle by particle.)

Data set [3] relates to HK-2 cells. Briefly: Cell viability (CCK-8) in HK-2 cells under cytotoxicity induction by tacrolimus. The format is cell-based, human. The following applies: for survival rate: Nil = 100%. The method, then: The human kidney-2 cell line used in this experiment was purchased from ATCC (Manassas, Va., USA) and used. These cells were cultured in Dulbecco's modified Eagle's medium (DMEM; Wisent) containing 10% fetal bovine serum (FBS; Wisent, St. Bruno, Que, Canada), 100 U/mL penicillin, and […] streptomycin (Wisent) in 5% CO2, 37° C. incubator. After 80% seeding of HK-2 cells, 24 hours later, tacrolimus was treated at a concentration of 60 to 70 μg/ml and SD911 was treated at a concentration of 1 to 20 μM and reacted for 3 to 12 hours. In the case of cells isolated as a single cell from mouse spleen tissue, after seeding 2×10^5/cell/200 μl in a 96-well plate in triplicate, each SD911 compound was treated with 1 to 20 μM and reacted for 3 days. Thereafter, the cell counting kit-8 (CCK-8, Dojindo molecular, Rockville, Mass., USA) reagent was treated for 2 hours, and then measured and analyzed at absorbance of 450 nm. The cytoprotective effect of an SD911 compound was investigated under HK-2 cytotoxicity induction by tacrolimus (Tac).

The subject of another data set is mouse splenocytes. The data set is described as follows: Toxicity test (CCK-8) on mouse splenocytes. The note with it: SD911 1, 5, 20 μM, 3 days. The format is cell-based. On the procedure:
After 80% seeding of HK-2 cells, 24 hours later, tacrolimus was treated at a concentration of 60 to 70 μg/ml and SD911 was treated at a concentration of 1 to 20 μM and reacted for 3 to 12 hours. In the case of cells isolated as a single cell from mouse spleen tissue, after seeding 2×10^5/cell/200 μl in a 96-well plate in triplicate, each SD911 compound was treated with 1 to 20 μM and reacted for 3 days. Thereafter, the cell counting kit-8 (CCK-8, Dojindo molecular, Rockville, Mass., USA) reagent was treated for 2 hours, and then measured and analyzed at absorbance of 450 nm.

Another data set deals with IL-10. Briefly: IL-10 ELISA of cell culture medium under anti-CD3 immune activity. The format is cell-based, mouse. The note with it: anti-CD3 stimulation, 3 days, compared to group not treated with SD911. On the procedure: (§1) Cell culture for ELISA was coated with 250 ul of mouse anti-CD3 antibody diluted in ccPBS with 0.5 μg/ml in a 24-well plate as many as the number of conditions. After incubation for 2 hours, the supernatant was removed and the cells were seeded at 1×10^6/cells/1 ml and then treated with each drug. After culturing for 3 days, only the cell culture medium was removed and used as IL-10 and IL-17 ELISA samples.

In data set [4] the test system is immunodeficient mice (NSG) injected with transplantation rejection patient PBMCs. Briefly: Transplantation rejection patient imitation avatar (humanized NSG mouse) model, immunosuppressant effect. The note with it: group injected with transplantation rejection patient PBMCs. The format is in vivo. From the text: In order to produce the transplantation rejection avatar animal model of an embodiment of the present invention, PBMCs (peripheral blood mononuclear cells) derived from normal or transplantation rejection patients were intravascularly injected into 8 to 10 week old immunodeficient mice (NSG) at 5×10^6/mice. After 3 weeks, the engraftment of normal or transplantation rejection patients (kidney transplantation rejection patients) cells in the blood was identified in blood cells. Thereafter, the mice were sacrificed 4 weeks after cell transplantation to identify the infiltration of human cells and histological changes in the tissue (FIG. 8).
In order to identify that the transplantation rejection patient imitation avatar model in Example 8 above was properly constructed, engraftment of human cells was analyzed through flow cytometry. Specifically, blood was obtained from the transplantation rejection humanized mice of Example 1 (normal PBMC injection group, HC; transplantation rejection patient PBMC injection group, Patient), and then cells that were positive in reaction with human antibodies were analyzed. In addition, blood […] (SCR) concentration was measured as an index for measuring kidney damage in PBMC-injected mice of normal subjects and transplantation rejection patients. SCR was measured by the quantitative enzymatic colorimetric method (Stanbio laboratory, 0430-120) by isolating serum in animal blood.
Specifically, the transplantation rejection humanized mouse model established in Example 8 above was classified as 1) a normal PBMC injection group, 2) a normal PBMC injection group treated with an immunosuppressant, 3) a transplantation rejection patient PBMC injection group, and 4) a transplantation rejection patient PBMC injection group treated with an immunosuppressant. SD911 was used as the immunosuppressant. Specifically, the animal model of Example 8 above was treated with SD911 at 3 weeks after engraftment of PBMCs. and the same amount of physiological saline was treated as a control group. […]

Another data set deals with IL-17. Briefly: IL-17 ELISA of cell culture medium under anti-CD3 immune activity. The format is cell-based, mouse. The note with it: anti-CD3 stimulation, 3 days, compared to group not treated with SD911. On the procedure:
as §1

On to `C[C@@H]1CN(c2nnc(Oc3ccccc3)c3ccccc23)CCN1c1ccc(C#N)cn1` [SD911, 6-((R)-2-methyl-4-(1-phenoxyphthalazin-4-yl)piperazin-1-yl)pyridine-3-carbonitrile], for which the “ratio of necrotic cells, apoptotic cells, and early apoptotic cells & necrotic cells” value in the data set with HK-1 cells is “significantly alleviated compared to Tac alone”. Besides, the “reduction of S1P lyase activity compared to the control” value in data set [1] is “about 30%”. The entries for the “ROS (DCF-DA fluorescence fraction)” value with HK-2 cells [2] (1 μM SD911 combined with tacrolimus), in the data set on HK-2 cells [2] (5 μM SD911 combined with tacrolimus) and with HK-2 cells [2] (10 μM SD911 combined with tacrolimus) were 36.5%, 13.7% and 9.3%, respectively. The “fluorescence fraction of DCF-DA (ROS)” value in the data set with HK-2 cells [2] (SD911 alone at 1, 5 and 10 μM, compared to Nil) is “almost no difference from that of Nil”. Besides, the survival rate with HK-2 cells [3] (1 μM SD911 in combination with tacrolimus) was 81.7%; with HK-2 cells [3] (5 μM SD911 in combination with tacrolimus), 81.8%; with HK-2 cells [3] (10 μM SD911 in combination with tacrolimus), 72.0%; with HK-2 cells [3] (20 μM SD911 in combination with tacrolimus), 37.4%. The “own drug toxicity (cell viability compared to Nil)” value in the data set with HK-2 cells [3] (SD911 alone at 1, 5, 10 and 20 μM) is “did not have its own drug toxicity”. The “toxicity on immune cells (cell viability vs Nil group)” value in the data set on mouse splenocytes is “no significant difference compared to the Nil group”. In the data set on IL-10, the “IL-10 level (ELISA)” value is given as “increased IL-10 in a concentration-dependent manner”. In addition, in data set [4] (SD911 at 3 weeks after engraftment, sacrifice 1 week later), the “damage to kidney tissue (GN score, IN score, Vasculitis)” value is listed as “the damage to the kidney tissue was reduced”. Moreover, the “infiltration of IL-17 positive cells in kidney tissue” value in data set [4] (immunohistochemical staining) is given as “significantly reduced”. The “infiltration of human CD4-positive cells in kidney tissue” value in data set [4] (immunohistochemical staining) is given as “significantly reduced”. Besides, the “IL-17 level (ELISA)” value with IL-17 is “decreased IL-17”.

On to `C=CC[C@@H]1/C=C(\C)C[C@H](C)C[C@H](OC)[C@H]2O[C@@](O)(C(=O)C(=O)N3CCCC[C@H]3C(=O)O[C@H](/C(C)=C/[C@@H]3CC[C@@H](O)[C@H](OC)C3)[C@H](C)[C@@H](O)CC1=O)[C@H](C)C[C@@H]2OC` [tacrolimus, reference compound], for which the “ROS (DCF-DA fluorescence fraction)” value with HK-2 cells [2] (tacrolimus (Tac) alone, induction of HK-2 cytotoxicity) is listed as 31.6%. The compound also had a survival rate with HK-2 cells [3] (tacrolimus (Tac) alone) of 56.7%.

The values are drawn from US20230095498A1, “NOVEL COMPOUND AND USE THEREOF” (THE CATHOLIC UNIVERSITY OF KOREA INDUSTRY-ACADEMIC …, priority 2020, published 2023).
